Holding throughout (format): functional
Test [1] deals with Mycobacterium tuberculosis. Description: Antitubercular activity against multi drug resistant Mycobacterium tuberculosis isolate 2.
The test system of test [2] is Mycobacterium tuberculosis. As to the kind of experiment: Antitubercular activity against multi drug resistant Mycobacterium tuberculosis isolate 7.
Test [3] deals with Mycobacterium tuberculosis. Description: Antitubercular activity against extensively drug resistant Mycobacterium tuberculosis isolate 10.
The subject of test [4] is Mycobacterium tuberculosis. Description: Antitubercular activity against extensively drug resistant Mycobacterium tuberculosis isolate 8.
Test [5] relates to Mycobacterium tuberculosis. As to the kind of experiment: Antitubercular activity against multi drug resistant Mycobacterium tuberculosis isolate 5.
In test [6] the test system is Mycobacterium tuberculosis. As to the kind of experiment: Antitubercular activity against multi drug resistant Mycobacterium tuberculosis isolate 6.
In test [7] the test system is Mycobacterium tuberculosis. As to the kind of experiment: Antitubercular activity against multi drug resistant Mycobacterium tuberculosis isolate 4.
The test system of test [8] is Mycobacterium tuberculosis. Description: Antitubercular activity against extensively drug resistant Mycobacterium tuberculosis isolate 9.
Test [9] relates to Mycobacterium tuberculosis. Description: Antitubercular activity against extensively drug resistant Mycobacterium tuberculosis isolate 11.
Test [10] relates to Mycobacterium tuberculosis. Description: Antitubercular activity against multi drug resistant Mycobacterium tuberculosis isolate 1.
The subject of test [11] is Mycobacterium tuberculosis. Description: Antitubercular activity against multi drug resistant Mycobacterium tuberculosis isolate 3.

Converted amounts (≈) assume the structure as drawn.

As for `CCCCCCCCCCCCCCCCC(=O)N(O)CCCC[C@H](NC(=O)[C@@H]1COC(c2ccccc2O)=N1)C(=O)NC[C@H](NC(=O)CCCO[C@H]1O[C@@H]2O[C@@]3(C)CC[C@H]4[C@H](C)CC[C@@H]([C@H]1C)[C@@]24OO3)C(=O)N[C@H]1CCCCN(O)C1=O`, the MIC – broadly, the lowest concentration that inhibits growth of the organism – is 0.625 µg/mL (≈ 0.535 µM) in test [1]; 0.312 µg/mL (≈ 0.267 µM) in test [2]; 0.625 µg/mL (≈ 0.535 µM) in test [3]; 0.31 µg/mL (≈ 0.265 µM) in [4]; 0.156 to 0.312 µg/mL (≈ 0.134 to 0.267 µM) in test [5]; 0.625 µg/mL (≈ 0.535 µM) in test [6]. The MIC in [7] is 0.625 µg/mL (≈ 0.535 µM); in test [8], 0.078 µg/mL (≈ 0.0668 µM); in test [9], 0.31 µg/mL (≈ 0.265 µM); in [10] it was 1.25 µg/mL (≈ 1.07 µM); in test [11] it was 0.625 µg/mL (≈ 0.535 µM).
